Measurements from ChEMBL document CHEMBL2073946, “Role of organic anion transporter OATP1B1 (OATP-C) in hepatic uptake of irinotecan and its active metabolite, 7-ethyl-10-hydroxycamptothecin: in vitro evidence and effect of single nucleotide polymorphisms” (Drug Metab Dispos, 2005).

Key:
Assay type in all cases: functional, cell-based
[1] = target: T1, Solute carrier organic anion transporter family member 1B1 (Homo sapiens, UniProt Q9Y6L6); assay: TP_TRANSPORTER: uptake in OATP1B1-expressing HEK293 cell
T1 sequence (Q9Y6L6 whole entry): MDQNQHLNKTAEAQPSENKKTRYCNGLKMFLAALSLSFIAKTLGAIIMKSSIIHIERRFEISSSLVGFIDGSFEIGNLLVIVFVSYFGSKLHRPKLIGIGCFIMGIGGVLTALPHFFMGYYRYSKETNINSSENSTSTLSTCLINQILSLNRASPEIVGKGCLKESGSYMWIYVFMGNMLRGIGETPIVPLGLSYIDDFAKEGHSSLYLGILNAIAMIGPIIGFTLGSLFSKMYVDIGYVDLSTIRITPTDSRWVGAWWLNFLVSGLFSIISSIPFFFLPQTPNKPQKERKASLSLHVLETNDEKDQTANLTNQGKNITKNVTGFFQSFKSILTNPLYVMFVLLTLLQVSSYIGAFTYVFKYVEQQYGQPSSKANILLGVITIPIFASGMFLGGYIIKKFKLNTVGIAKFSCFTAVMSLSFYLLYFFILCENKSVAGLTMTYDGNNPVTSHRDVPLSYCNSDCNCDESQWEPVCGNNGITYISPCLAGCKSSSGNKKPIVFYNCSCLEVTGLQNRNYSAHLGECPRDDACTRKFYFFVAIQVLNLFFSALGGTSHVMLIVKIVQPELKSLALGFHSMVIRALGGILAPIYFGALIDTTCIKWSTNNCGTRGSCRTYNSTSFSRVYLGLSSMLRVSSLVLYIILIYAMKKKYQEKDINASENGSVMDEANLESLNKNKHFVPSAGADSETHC

[2] = target: T1, Solute carrier organic anion transporter family member 1B1; assay: TP_TRANSPORTER: uptake in OATP1B1-expressing HEK293 cells
[3] = target: T1, Solute carrier organic anion transporter family member 1B1; assay: TP_TRANSPORTER: uptake of SN-38 at a concentration of 0.16uL/oocyte in Xenopus laevis oocytes
[4] = target: T2, Solute carrier organic anion transporter family member 2B1 (Homo sapiens, UniProt O94956); assay: TP_TRANSPORTER: uptake of SN-38 at a concentration of 0.10uL/oocyte in Xenopus laevis oocytes
T2 sequence (O94956 whole entry): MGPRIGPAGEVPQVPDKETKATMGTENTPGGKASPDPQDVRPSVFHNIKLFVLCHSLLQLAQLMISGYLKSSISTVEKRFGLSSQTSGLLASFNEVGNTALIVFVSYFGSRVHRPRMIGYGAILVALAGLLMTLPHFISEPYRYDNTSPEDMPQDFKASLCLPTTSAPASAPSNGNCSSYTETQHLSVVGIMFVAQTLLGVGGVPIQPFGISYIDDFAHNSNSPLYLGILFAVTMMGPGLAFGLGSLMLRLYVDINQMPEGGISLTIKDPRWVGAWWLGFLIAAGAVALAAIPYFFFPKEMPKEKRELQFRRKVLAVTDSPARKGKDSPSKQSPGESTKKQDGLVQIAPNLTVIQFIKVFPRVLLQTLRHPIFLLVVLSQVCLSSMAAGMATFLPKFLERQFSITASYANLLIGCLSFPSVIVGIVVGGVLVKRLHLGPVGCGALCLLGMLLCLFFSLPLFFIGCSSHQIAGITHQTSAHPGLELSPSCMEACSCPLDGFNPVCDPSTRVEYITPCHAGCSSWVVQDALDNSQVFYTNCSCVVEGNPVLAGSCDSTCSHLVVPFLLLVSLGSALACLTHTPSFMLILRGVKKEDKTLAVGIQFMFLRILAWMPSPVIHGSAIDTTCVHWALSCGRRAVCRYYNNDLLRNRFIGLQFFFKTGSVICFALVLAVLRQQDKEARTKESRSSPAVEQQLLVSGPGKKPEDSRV

[5] = target: T3, Solute carrier organic anion transporter family member 1B3 (Homo sapiens, UniProt Q9NPD5); assay: TP_TRANSPORTER: uptake of SN-38 at a concentration of 0.09uL/oocyte in Xenopus laevis oocytes
T3 sequence (Q9NPD5 whole entry): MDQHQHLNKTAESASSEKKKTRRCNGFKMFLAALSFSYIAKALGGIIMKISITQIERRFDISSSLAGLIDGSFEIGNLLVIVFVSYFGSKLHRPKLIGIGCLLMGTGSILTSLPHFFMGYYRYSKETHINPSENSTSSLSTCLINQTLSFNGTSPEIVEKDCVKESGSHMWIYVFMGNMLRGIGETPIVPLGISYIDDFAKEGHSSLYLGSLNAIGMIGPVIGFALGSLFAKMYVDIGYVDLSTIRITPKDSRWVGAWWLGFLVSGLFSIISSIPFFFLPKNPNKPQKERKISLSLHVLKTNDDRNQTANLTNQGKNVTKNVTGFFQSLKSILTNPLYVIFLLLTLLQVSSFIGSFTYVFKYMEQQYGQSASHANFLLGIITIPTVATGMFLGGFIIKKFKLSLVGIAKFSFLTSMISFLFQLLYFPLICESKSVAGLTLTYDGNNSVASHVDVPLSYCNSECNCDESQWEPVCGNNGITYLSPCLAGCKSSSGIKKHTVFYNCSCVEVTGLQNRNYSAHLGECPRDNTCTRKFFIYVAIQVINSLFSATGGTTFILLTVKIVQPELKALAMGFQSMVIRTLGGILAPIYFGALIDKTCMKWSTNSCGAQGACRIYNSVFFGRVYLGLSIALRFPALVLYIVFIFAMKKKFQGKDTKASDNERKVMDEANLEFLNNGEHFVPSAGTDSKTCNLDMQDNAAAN

[6] = target: T1, Solute carrier organic anion transporter family member 1B1; assay: TP_TRANSPORTER: inhibition of E1S uptake (SN38 10 u M) in OATP1B1-expressing HEK293 cells; design: scale not given: the % may be the effect or the level left; conditions: hek293, 10 µM
[7] = target: T1, Solute carrier organic anion transporter family member 1B1; assay: TP_TRANSPORTER: inhibition of E1S uptake (SN38 G 10 u M) in OATP1B1-expressing HEK293 cells; conditions: hek293, 10 µM

Activity [1]	Activity [2]	Activity [3]	Activity [4]	Activity [5]	Activity [6]	SMILES	Activity [7]
is not a substrate [-]						CCc1c2c(nc3ccc(OC(=O)N4CCC(N5CCCCC5)CC4)cc13)-c1cc3c(c(=O)n1C2)COC(=O)[C@]3(O)CC [IRINOTECAN]	
substrate [+]	substrate []	substrate [+]	is not a substrate [-]	is not a substrate [-]	50%	CCc1c2c(nc3ccc(O)cc13)-c1cc3c(c(=O)n1C2)COC(=O)[C@]3(O)CC [7-ETHYL-10-HYDROXYCAMPTOTHECIN]	

SMILES	Activity [1]	Activity [2]	Activity [3]	Activity [4]	Activity [5]	Activity [6]	Activity [7]
CCc1c2c(nc3ccc(OC[C@@H]4O[C@H](C(=O)O)[C@@H](O)[C@H](O)[C@H]4O)cc13)-c1cc3c(c(=O)n1C2)COC(=O)[C@]3(O)CC	is not a substrate [-]						is not an inhibitor [-]
